# Test results published in US20240408022A1, “DESIDUSTAT PARTICLES AND COMPOSITIONS THEREOF” (ZYDUS LIFESCIENCES LIMITED, priority 2021, published 2024).
# Assay: Particle size and specific surface area analysis (Malvern Mastersizer 3000, laser diffraction)
# Assay type: physicochemical
# Conditions: for D10 / D50 / D90: particle size of desidustat used in the composition
# Protocol: (i) Particle Size and Specific Surface Area Analysis Method:
# Particle size was determined by Malvern Mastersizer 3000 with Hydro MV accessory, laser diffraction particle size analyser. About 100 mg of drug substance weighed and transferred into 100 mL of glass beaker. About 10-15 drops of dispersant sunflower oil:cyclohexane (80:20) were added and the lumps were broken with glass rod for about 3 to 5 min. 20 mL of dispersant was added into the same glass beaker and the content were shaken for 3-5 minutes with glass rod to mix well. Background measurement using dispersant was performed. When the blank correction/background measurement was over, sample slurry (with continuous manual shaking) was added in the sampler at 1500 rpm to get the target obscuration value between 10% and 30% and remained constant. Then the histogram was recorded.
# [1] = Example 1, after further multi-milling using 0.2 mm sieve
D10 [μm],D50 [μm],D90 [μm],Particle size distribution D10 [1] [μm],Particle size distribution D50 [1] [μm],Particle size distribution D90 [1] [μm],Specific surface area [1] [m^2/g],"Particle size D90 (Example 1, after multi-milling using 5 mm sieve and drying, before 0.2 mm sieve) [μm]",Structure (SMILES)
0.80,22.7,130.0,–,–,–,–,–,O=C(O)CNC(=O)c1c(O)c2ccccc2n(OCC2CC2)c1=O [Milled desidustat]
2.16,98.3,366,–,–,–,–,–,O=C(O)CNC(=O)c1c(O)c2ccccc2n(OCC2CC2)c1=O [Unmilled desidustat]
–,–,–,0.80,22.7,130,2,366,"O=C(O)CNC(=O)c1c(O)c2ccccc2n(OCC2CC2)c1=O [desidustat, 2-(1-(Cyclopropylmethoxy)-4-hydroxy-2-oxo-1,2-dihydroquinoline-3-carboxamido) acetic acid]"
